Reference: patent US10471046B2, “Method for treating, preventing, or reducing the risk of skin infection” (Melinta Subsidiary Corp., priority 2014, dated 2019)
Values after ≈ are worked out from the molar mass of the structure shown.

Key:
F. magna = assay: Agar dilution MIC (CLSI reference method); format: cell-based
P. acnes = assay: Agar dilution MIC (CLSI reference method); format: cell-based; settings: for MIC: Cutibacterium acnes
P. granulosum = assay: Broth microdilution MIC; format: cell-based
Legionella pneumophila = settings: cited from earlier work

With `CC(=O)NC[C@H]1CN(c2ccc(-c3ccc(CNCc4cnn[nH]4)cc3)c(F)c2)C(=O)O1` [Radezolid, (5S)—N-[3-(2-Fluoro-4′-{[(1H-[1,2,3]triazol-4-ylmethyl)-amino]-methyl}-biphenyl-4-yl)-2-oxo-oxazolidin-5-ylmethyl]-acetamide] the “agar dilution MIC, fold more potent than linezolid” value (F. magna; F. magna) was 4 fold, the “difference between broth and agar dilution MICs” value (F. magna; F. magna) was 4 fold and the MIC (F. magna; Finegoldia magna, ATCC15794, F. magna ATCC 15794) was 0.5 µg/mL (≈ 1.14 µM). It also gave an MIC (P. acnes; ATCC11827, P. acnes ATCC 11827) of 0.125 µg/mL (≈ 0.285 µM), an MIC (P. acnes; ATCC11828, P. acnes ATCC 11828) of 0.125 µg/mL (≈ 0.285 µM) and an MIC (P. acnes; ATCC29399, P. acnes ATCC 29399) of 0.125 µg/mL (≈ 0.285 µM). For the same compound, the “agar dilution MIC, fold more potent than linezolid” value (P. acnes; P. acnes) was 4 fold, the “broth microdilution, fold more active than linezolid” value (P. granulosum; P. granulosum) was 8 fold and the MIC (P. granulosum; P. granulosum ATCC 25746) was 0.125 µg/mL (≈ 0.285 µM). The intracellular killing (Legionella pneumophila) was “kills”.
